These results are taken from publication PMC12741935 (Alzheimer's & Dementia, 2025).

For the data set, the system named is NfL, Aβ40, Aβ42. Briefly: Plasma NfL and plasma/brain Aβ40, Aβ42 ELISA in chronically treated 5xFAD mice. It counts as in vivo. To be noted: chronic 100 mg/kg BID PO. How it is done: V-PLEX Aβ Peptide Panel 1 (4G8) Kit (Meso Scale Diagnostics, LLC #[…]) was used for Aβ40/Aβ42 detection and S-PLEX Neurofilament L Kit (Meso Scale Diagnostics, LLC # […]) was used for NfL analysis, according to the manufacturer's protocols. […] The supernatant recovered was the DEA soluble fraction containing the soluble Aβ isoforms. […] For ELISA, the DEA-soluble fraction was diluted at 10 times and 40 times and the insoluble fraction was diluted at 40 times and 300 times. The assay plates were read by MESO […] plate reader and analyzed using Discovery Workbench Software (MesoScale Discovery). All samples were run in duplicate and averaged for analysis. Brain concentrations of the soluble and insoluble Aβ were normalized to total protein. All samples from a single plasma collection timepoint were run together on the appropriate MSD plate with the kit provided calibration standards.
(In general: An ELISA detects its analyte on a solid surface through an enzyme-linked reagent.)

On to `CC(C)NC(=O)N1CC[C@H](NC2=Nc3cc(F)ccc3N(CC(F)F)c3ccc(Cl)cc32)C1` [NVS‐PAK1‐1, (S)‐3‐([2‐chloro‐5‐(2,2‐difluoroethyl)‐8‐fluoro‐5H‐dibenzo[b,e][1,4]diazepin‐11‐yl]amino)‐N‐isopropylpyrrolidine‐1‐carboxamide], for which the “brain amyloid accumulation, soluble (DEA) and insoluble (FA) fractions” value (5xFAD) was “mirrored Aβ plasma values”. Besides, the “plasma NfL” value (young, aged, male, or female 5xFAD cohorts) is listed as “did not significantly lower”.
